Test results from patent US20230109157A1, “TOPICALLY APPLICABLE PREPARATION COMPRISING PEPTIDES AS ALLERGEN PROTECTION FOR THE SKIN” (BEIERSDORF AG, priority 2020, published 2023).
Where no end group is shown, it is not given here.

What was measured:
interleukin 6 (IL6) = assay: Interleukin 6 in supernatants of Phenion FTS full skin models (Bio-Plex multiplex immunoassay); assay type: cell-based, Human; settings: FIG. 4, left bar; peptide alone
Procedure: (§1) The investigations were carried out using Phenion FTS full skin models (Phenion, Henkel). These were maintained for 3 days at 37° C. and 7% CO2 in deep-well plates having a […] pore size in the cell culture inserts. The skin models were maintained in 1.5 ml of air-liquid interface medium without phenol red. The medium was changed daily. The test substances were dissolved in ethanol and incubated at room temperature for 24 h. After culturing for 24 h, 25 μl of the substance solution was dripped onto a sterile filter paper that had previously been laid on the skin model. The barrier peptide (0.5 mM AcRFAACAA) had previously been applied to the model as a solution in 100 mM phosphate buffer (pH 7.5). Alternatively, the barrier peptide was applied in a formulation having a content of 0.25% by weight.
(§2) After culturing for a further 24 h, the models were harvested and one half embedded in OCT mounting medium (VWR Q-Path Chemicals), the other half snap-frozen in liquid nitrogen. The supernatant of each model was collected and stored at −20° C.
The supernatants were then analyzed (FIGS. 2, 3 and 4).
The supernatants of the Phenion FTS models were analyzed using the Bio-Plex Pro Human Cytokine Screening Panel (Bio-Rad) according to the manufacturer's protocol. […] The cytokine concentrations are calculated on the basis of the standard curves from the Bioplex system. […]

Phenion skin models = assay: H&E staining of cryosections of Phenion skin models; assay type: cell-based; settings: FIG. 5B; 0.5 mM peptide (control)
Procedure: as §1, §2
In further investigations, frozen sections were thawed and incubated for 10 min in 3.7% paraformaldehyde at RT. After three PBS wash steps and one minute in distilled water, they are stained for 3 min in hematoxylin solution. […]

[1] = Direct peptide reactivity assay (DPRA) with urushiols, Ellman's reagent, 24 h; settings: FIG. 9; urushiols C15:1, C15:2, C15:3 (structures I-V); 24 h reaction, n=3
Procedure: FIGS. 7A-E, 8, and 9 show investigations into the reactivity of peptides of the invention with allergens over time (x-axis) and after 24 h. The absorbance is plotted on the y-axis. The peptide-allergen reactions were realized according to a direct peptide reactivity assay. The test is referred to as the in-chemico method, that is to say no cells are used, but a chemical reaction is carried out.
The native, still-unbound peptide is detected by reaction with Ellman's reagent and corresponding absorbance measurement. The direct peptide reactivity assay (DPRA) is a chemical method for predicting epidermal protein binding. DPRA uses for example HPLC to measure the depletion of peptides in solution after exposure to test chemicals.
In the DPRA method, the absorbance at 415 nm is determined as the measured variable.
The allergen concentration is in the investigations carried out a standard 5 mM and thus 10 times the concentration of the peptide used (0.5 mM).
The reaction courses shown in FIGS. 8 and 9 were determined colorimetrically through the reaction of the peptide with Ellmann's reagent in a photometer. In this reaction, DTNB ((5,5′-dithiobis-2-nitrobenzoic acid, Ellmann's reagent) is cleaved and attached to the SH residue of the amino acid cysteine of the peptides of the invention (Ac-RFAACAA, RFAACAA). […]

| Substance | interleukin 6 (IL6) concentration, peptide on its own (interleukin 6 (IL6)) | skin model histology (H&E), peptide alone (Phenion skin models) | reactivity and thus protective activity against urushiols [1] |
| --- | --- | --- | --- |
| Ac-RFAACAA [Ac-RFAACAA, acetylarginine-phenylalanine-alanine-alanine-cysteine-alanine-alanine] | unchanged | unchanged |  |
| RFAACAA [Arg Phe Ala Ala Cys Ala Ala] |  |  | very high reactivity |
